Where “and” joins values, the source holds several entries; their conditions need not be identical. Equal entries are not always repeated.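 Method: 48-hour compound exposure of cells in 96-well plates, five concentrations, linear interpolation of endpoints. At the GI50, growth is halved. The concentration for full growth arrest is given as TGI.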
Assays:
Assay in all cases: inhibition of tumour cell growth, NCI panel, 48 h
LOX IMVI melanoma = test system: LOX IMVI melanoma
A498 renal = test system: A498 renal
HCC-2998 colon = test system: HCC-2998 colon
UACC-257 melanoma = test system: UACC-257 melanoma
OVCAR-3 ovarian = test system: OVCAR-3 ovarian
SF-268 CNS = test system: SF-268 CNS
HCT-15 colon = test system: HCT-15 colon
MOLT-4 leukemia = test system: MOLT-4 leukemia
COLO 205 colon = test system: COLO 205 colon
CAKI-1 renal = test system: CAKI-1 renal

SMILES	TGI (LOX IMVI melanoma)	TGI (A498 renal)	TGI (HCC-2998 colon)	TGI (UACC-257 melanoma)	TGI (OVCAR-3 ovarian)	TGI (SF-268 CNS)	TGI (HCT-15 colon)	TGI (MOLT-4 leukemia)	TGI (COLO 205 colon)	TGI (CAKI-1 renal)	GI50 (LOX IMVI melanoma) [µM]	GI50 (A498 renal) [µM]	GI50 (CAKI-1 renal) [µM]	GI50 (HCC-2998 colon) [µM]	GI50 (UACC-257 melanoma) [µM]	GI50 (OVCAR-3 ovarian) [µM]	GI50 (SF-268 CNS) [µM]	GI50 (HCT-15 colon) [µM]	GI50 (MOLT-4 leukemia) [µM]	GI50 (COLO 205 colon) [µM]
CC1=C(C(=O)Nc2ccccc2C)C(c2ccccc2C)C(C(=O)Nc2ccccc2C)=C(C)N1	30.3 µM	> 100 µM	36.4 µM	72.6 µM	34.7 µM	69.5 µM	40.3 µM	> 10 µM	62.5 µM	–	–	–	–	–	–	–	–	–	–	–
COC(=O)C1=C(c2ccc(Cl)cc2)C(O)N=C(NN)N1 (centres undefined)	> 100 µM	–	> 100 µM	> 100 µM	> 100 µM	> 100 µM	> 100 µM	> 100 µM	–	> 100 µM	–	–	–	–	–	–	–	–	–	–
O=C(CC(=O)c1ccccc1)C(=O)NC12CC3CC(CC(C3)C1)C2	> 50 µM	> 100 µM	> 100 µM	> 100 µM	> 100 µM	> 100 µM	> 54.3 µM	> 100 µM	> 64.8 µM	> 100 µM	–	–	–	–	–	–	–	–	–	–
O=C1NN=C(c2ccc([N+](=O)[O-])cc2)C1n1nc(-c2ccccc2)c2ccccc2c1=O (centres undefined)	> 100 µM	> 100 µM	> 100 µM	> 100 µM	> 100 µM	> 100 µM	> 68.5 µM	> 100 µM	> 100 µM	> 100 µM	–	–	–	–	–	–	–	–	–	–
Cc1ccc(-c2c3c(N)c4c(nc3nc3c2c(C)nn3-c2ccccc2)CCC4)cc1	3.99 µM	32.6 µM	8.43 µM	28.8 µM	3.86 µM	11 µM	5.15 µM	7.94 µM	3.6 µM	16.6 µM	1.98	16.1	6.89	3	14.1	1.96	3.26	2.11	2.81	1.69
O=C1C=C(OCCCl)C(=O)c2c(O)ccc(O)c21	0.392 µM and 1.83 µM	2.55 µM and 4.25 µM	3.03 µM and 2.47 µM	0.358 µM and 2.44 µM	2.33 µM and 1.08 µM	2.6 µM and 15.3 µM	0.433 µM and 3.15 µM	6.5 µM and 1.58 µM	0.338 µM and 1.92 µM	3.88 µM and 3.16 µM	0.465	2.38	1.75	1.12	0.762	0.286	3.98	1.4	0.368	0.592
COc1cc2nncc(SCc3ccc(Cl)c(Cl)c3)c2cc1OC	> 100 µM	> 100 µM	> 100 µM	> 100 µM	> 100 µM	> 100 µM	> 100 µM	> 100 µM	> 100 µM	> 100 µM	–	–	–	–	–	–	–	–	–	–
CCSC(=O)C1(C)OC2CCCCC2C1=O (centres undefined)	–	> 100 µM	> 100 µM	> 100 µM	–	> 100 µM	> 100 µM	> 100 µM	> 100 µM	> 100 µM	–	–	–	–	–	–	–	–	–	–
CC1CC(=O)c2c(ccc3c2C(=O)c2cccc(O)c2C3=O)C1 (centres undefined)	16 µM	27.5 µM	23.2 µM	19.2 µM	16.5 µM	31.1 µM	22.9 µM	9.57 µM	25.2 µM	–	–	–	–	–	–	–	–	–	–	–
